pIC50: −log10 of the molar value.
Columns and labels:
[1] = target: His-tagged KRAS G12D protein (Homo sapiens, UniProt P01116, G12D); test: biochemical
Experimental: The plate was incubated for 30 minutes at room temperature. Biotinylated KRPep-2d substrate (Amgen) was diluted to nM in Assay Buffer and 2 μL was added to all wells and incubated for 1 hour at room temperature. Detection Reagent (0.4 nM LANCE Eu-W1024 Anti-6×His (Perkin Elmer AD0401), 5 nM streptavidin-d2 (Cisbio 610SADLA)) was prepared in Assay Buffer, then 4 µL was added to the plate and incubated for 1 hour at room temperature.

[2] = system: Phosphorylation of ERK1/2 in AsPC-1 cells; test: Phospho-ERK1/2 MSD Assay; assay type: cell-based; conditions: Homo sapiens, ASPC1, 2 h, read-out: 2 h p-ERK (AsPC-1 cells), IC50, AsPC-1 cells, 2 h compound treatment
Experimental: Sixteen hours prior to compound treatment, AsPC-1 cells were seeded in 96-well cell culture plates at a density of 25,000 cells/well and incubated at 37° C., 5% CO2. A compound dose-response titration was diluted in growth media, added to appropriate wells of a cell culture plate, and then incubated at 37° C., 5% CO2 for 2 hours.

Sequence of His-tagged KRAS G12D protein (P01116 1-188 isoform P01116-2 G12D): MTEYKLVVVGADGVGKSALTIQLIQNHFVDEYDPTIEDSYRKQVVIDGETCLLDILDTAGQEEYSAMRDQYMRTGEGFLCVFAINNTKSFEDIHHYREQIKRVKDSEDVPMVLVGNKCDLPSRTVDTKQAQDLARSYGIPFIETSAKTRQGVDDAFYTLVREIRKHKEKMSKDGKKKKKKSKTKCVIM

Compound | pIC50 [1] | pIC50 [2]
CCc1c(F)ccc2cc(O)cc(-c3ncc4c(N5CCCC(O)(CC)C5)nc(OC[C@@]56CCCN5C[C@H](F)C6)nc4c3F)c12 (stereo partly drawn) [Example 65, 3-Ethyl-1-(7-(8-ethyl-7-fluoro-3-hydroxynaphthalen-1-yl)-8-fluoro-2-(((2R,7aS)-2-fluorotetrahydro-1H-pyrrolizin-7a(5H)-yl)methoxy)pyrido[4,3-d]pyrimidin-4-yl)piperidin-3-ol] | 8.52 | 6.82
CCc1c(F)ccc2cc(O)cc(-c3ncc4c(N5CCC[C@](C)(CO)C5)nc(OC[C@@]56CCCN5C[C@H](F)C6)nc4c3F)c12 [Example 66, 5-Ethyl-6-fluoro-4-(8-fluoro-2-(((2R,7aS)-2-fluorotetrahydro-1H-pyrrolizin-7a(5H)-yl)methoxy)-4-((S)-3-(hydroxymethyl)-3-methylpiperidin-1-yl)pyrido[4,3-d]pyrimidin-7-yl)naphthalen-2-ol] | 7.74 | 6.12
CCc1c(F)ccc2cc(O)cc(-c3ncc4c(N5CCC[C@@](C)(CO)C5)nc(OC[C@@]56CCCN5C[C@H](F)C6)nc4c3F)c12 [Example 67, 5-Ethyl-6-fluoro-4-(8-fluoro-2-(((2R,7aS)-2-fluorotetrahydro-1H-pyrrolizin-7a(5H)-yl)methoxy)-4-((R)-3-(hydroxymethyl)-3-methylpiperidin-1-yl)pyrido[4,3-d]pyrimidin-7-yl)naphthalen-2-ol] | 7.72 | 6.09
CCc1c(F)ccc2cc(O)cc(-c3ncc4c(N5CCCC(C)(C(N)=O)C5)nc(OC[C@@]56CCCN5C[C@H](F)C6)nc4c3F)c12 (stereo partly drawn) [Example 68, 1-(7-(8-Ethyl-7-fluoro-3-hydroxynaphthalen-1-yl)-8-fluoro-2-(((2R,7aS)-2-fluorotetrahydro-1H-pyrrolizin-7a(5H)-yl)methoxy)pyrido[4,3-d]pyrimidin-4-yl)-3-methylpiperidine-3-carboxamide] | 8.10 | 5.77
CCc1c(F)ccc2cc(O)cc(-c3ncc4c(N5CC6CC(=O)C5C6)nc(OC[C@@]56CCCN5C[C@H](F)C6)nc4c3F)c12 (stereo partly drawn) [Example 72, 2-(7-(8-Ethyl-7-fluoro-3-hydroxynaphthalen-1-yl)-8-fluoro-2-(((2R,7aS)-2-fluorotetrahydro-1H-pyrrolizin-7a(5H)-yl)methoxy)pyrido[4,3-d]pyrimidin-4-yl)-2-azabicyclo[2.2.1]heptan-6-one] | 7.47 | 5.49
CCc1c(F)ccc2cc(O)cc(-c3ncc4c(N5CCCC(S(=O)(=O)NC)C5)nc(OC[C@@]56CCCN5C[C@H](F)C6)nc4c3F)c12 (stereo partly drawn) [Example 79, 1-(7-(8-Ethyl-7-fluoro-3-hydroxynaphthalen-1-yl)-8-fluoro-2-(((2R,7aS)-2-fluorotetrahydro-1H-pyrrolizin-7a(5H)-yl)methoxy)pyrido[4,3-d]pyrimidin-4-yl)-N-methylpiperidine-3-sulfonamide] | 8.30 | 5.66
CCc1c(F)ccc2cc(O)cc(-c3ncc4c(N5CCCCC[C@H]5C)nc(OC[C@@]56CCCN5C[C@H](F)C6)nc4c3F)c12 [Example 80, 5-Ethyl-6-fluoro-4-(8-fluoro-2-(((2R,7aS)-2-fluorotetrahydro-1H-pyrrolizin-7a(5H)-yl)methoxy)-4-((R)-2-methylazepan-1-yl)pyrido[4,3-d]pyrimidin-7-yl)naphthalen-2-ol] | 8.70 | 6.60
CCc1c(F)ccc2cc(O)cc(-c3ncc4c(N5CCCCC[C@@H]5C)nc(OC[C@@]56CCCN5C[C@H](F)C6)nc4c3F)c12 [Example 81, 5-Ethyl-6-fluoro-4-(8-fluoro-2-(((2R,7aS)-2-fluorotetrahydro-1H-pyrrolizin-7a(5H)-yl)methoxy)-4-((S)-2-methylazepan-1-yl)pyrido[4,3-d]pyrimidin-7-yl)naphthalen-2-ol] | 7.72 | 5.94
CCc1c(F)ccc2cc(O)cc(-c3ncc4c(N5CC(CS(N)(=O)=O)C5)nc(OC[C@@]56CCCN5C[C@H](F)C6)nc4c3F)c12 [Example 82, (1-(7-(8-Ethyl-7-fluoro-3-hydroxynaphthalen-1-yl)-8-fluoro-2-(((2R,7aS)-2-fluorotetrahydro-1H-pyrrolizin-7a(5H)-yl)methoxy)pyrido[4,3-d]pyrimidin-4-yl)azetidin-3-yl)methanesulfonamide] | 7.48 | < 5.00
CCc1c(F)ccc2cc(O)cc(-c3ncc4c(N5CC(O)(C(N)=O)C5)nc(OC[C@@]56CCCN5C[C@H](F)C6)nc4c3F)c12 [Example 83, 1-(7-(8-Ethyl-7-fluoro-3-hydroxynaphthalen-1-yl)-8-fluoro-2-(((2R,7aS)-2-fluorotetrahydro-1H-pyrrolizin-7a(5H)-yl)methoxy)pyrido[4,3-d]pyrimidin-4-yl)-3-hydroxyazetidine-3-carboxamide] | 8.70 | < 5.00
CCc1c(F)ccc2cc(O)cc(-c3ncc4c(N5CCCC(S(C)(=O)=O)C5)nc(OC[C@@]56CCCN5C[C@H](F)C6)nc4c3F)c12 (stereo partly drawn) [Example 84, 5-Ethyl-6-fluoro-4-(8-fluoro-2-(((2R,7aS)-2-fluorotetrahydro-1H-pyrrolizin-7a(5H)-yl)methoxy)-4-(3-(methylsulfonyl)piperidin-1-yl)pyrido[4,3-d]pyrimidin-7-yl)naphthalen-2-ol] | 8.30 | 5.89
CCc1c(F)ccc2cc(O)cc(-c3ncc4c(N5CCC(S(N)(=O)=O)CC5)nc(OC[C@@]56CCCN5C[C@H](F)C6)nc4c3F)c12 [Example 85, 1-(7-(8-Ethyl-7-fluoro-3-hydroxynaphthalen-1-yl)-8-fluoro-2-(((2R,7aS)-2-fluorotetrahydro-1H-pyrrolizin-7a(5H)-yl)methoxy)pyrido[4,3-d]pyrimidin-4-yl)piperidine-4-sulfonamide] | 7.43 | < 5.00
CCc1c(F)ccc2cc(O)cc(-c3ncc4c(N5CCC(S(N)(=O)=O)C5)nc(OC[C@@]56CCCN5C[C@H](F)C6)nc4c3F)c12 (stereo partly drawn) [Example 86, 1-(7-(8-Ethyl-7-fluoro-3-hydroxynaphthalen-1-yl)-8-fluoro-2-(((2R,7aS)-2-fluorotetrahydro-1H-pyrrolizin-7a(5H)-yl)methoxy)pyrido[4,3-d]pyrimidin-4-yl)pyrrolidine-3-sulfonamide] | 7.19 | < 5.00
CCc1c(F)ccc2cc(O)cc(-c3ncc4c(N5CC(S(N)(=O)=O)C5)nc(OC[C@@]56CCCN5C[C@H](F)C6)nc4c3F)c12 [Example 87, 1-(7-(8-Ethyl-7-fluoro-3-hydroxynaphthalen-1-yl)-8-fluoro-2-(((2R,7aS)-2-fluorotetrahydro-1H-pyrrolizin-7a(5H)-yl)methoxy)pyrido[4,3-d]pyrimidin-4-yl)azetidine-3-sulfonamide] | 7.20 | < 5.00
CCc1c(F)ccc2cc(O)cc(-c3ncc4c(N5CC(C(N)=O)C5)nc(OC[C@@]56CCCN5C[C@H](F)C6)nc4c3F)c12 [Example 88, 1-(7-(8-Ethyl-7-fluoro-3-hydroxynaphthalen-1-yl)-8-fluoro-2-(((2R,7aS)-2-fluorotetrahydro-1H-pyrrolizin-7a(5H)-yl)methoxy)pyrido[4,3-d]pyrimidin-4-yl)azetidine-3-carboxamide] | 8.22 | < 5.00
CCc1c(F)ccc2cc(O)cc(-c3ncc4c(N5CCCC(C(=O)NC)C5)nc(OC[C@@]56CCCN5C[C@H](F)C6)nc4c3F)c12 (stereo partly drawn) [Example 89, 1-(7-(8-Ethyl-7-fluoro-3-hydroxynaphthalen-1-yl)-8-fluoro-2-(((2R,7aS)-2-fluorotetrahydro-1H-pyrrolizin-7a(5H)-yl)methoxy)pyrido[4,3-d]pyrimidin-4-yl)-N-methylpiperidine-3-carboxamide] | 8.05 | < 5.52
CCc1c(F)ccc2cc(O)cc(-c3ncc4c(N5CC(C)(O)C5)nc(OC[C@@]56CCCN5C[C@H](F)C6)nc4c3F)c12 [Example 92, 1-(7-(8-Ethyl-7-fluoro-3-hydroxynaphthalen-1-yl)-8-fluoro-2-(((2R,7aS)-2-fluorotetrahydro-1H-pyrrolizin-7a(5H)-yl)methoxy)pyrido[4,3-d]pyrimidin-4-yl)-3-methylazetidin-3-ol] | 7.08 | 5.18
CCc1c(F)ccc2cc(O)cc(-c3ncc4c(N5CCCCCCC5)nc(OC[C@@]56CCCN5C[C@H](F)C6)nc4c3F)c12 [Example 93, 4-(4-(Azocan-1-yl)-8-fluoro-2-(((2R,7aS)-2-fluorotetrahydro-1H-pyrrolizin-7a(5H)-yl)methoxy)pyrido[4,3-d]pyrimidin-7-yl)-5-ethyl-6-fluoronaphthalen-2-ol] | 8.70 | 7.00
CCc1c(F)ccc2cc(O)cc(-c3ncc4c(N5CC6CCC(C5)C6O)nc(OC[C@@]56CCCN5C[C@H](F)C6)nc4c3F)c12 (stereo partly drawn) [Example 97, 3-(7-(8-Ethyl-7-fluoro-3-hydroxynaphthalen-1-yl)-8-fluoro-2-(((2R,7aS)-2-fluorotetrahydro-1H-pyrrolizin-7a(5H)-yl)methoxy)pyrido[4,3-d]pyrimidin-4-yl)-3-azabicyclo[3.2.1]octan-8-ol] | 7.48 | 5.81
CCc1c(F)ccc2cc(O)cc(-c3ncc4c(N5CC6CCC(C5)C6(C)O)nc(OC[C@@]56CCCN5C[C@H](F)C6)nc4c3F)c12 (stereo partly drawn) [Example 98, 3-(7-(8-Ethyl-7-fluoro-3-hydroxynaphthalen-1-yl)-8-fluoro-2-(((2R,7aS)-2-fluorotetrahydro-1H-pyrrolizin-7a(5H)-yl)methoxy)pyrido[4,3-d]pyrimidin-4-yl)-8-methyl-3-azabicyclo[3.2.1]octan-8-ol] | 7.10 | 5.55
CCc1c(F)ccc2cc(O)cc(-c3ncc4c(N5CCC6CC6(O)C5)nc(OC[C@@]56CCCN5C[C@H](F)C6)nc4c3F)c12 (stereo partly drawn) [Example 99, 3-(7-(8-Ethyl-7-fluoro-3-hydroxynaphthalen-1-yl)-8-fluoro-2-(((2R,7aS)-2-fluorotetrahydro-1H-pyrrolizin-7a(5H)-yl)methoxy)pyrido[4,3-d]pyrimidin-4-yl)-3-azabicyclo[4.1.0]heptan-1-ol] | 7.96 | 6.10

From patent publication US20250034167A1, “HETEROCYCLIC COMPOUNDS AND METHODS OF USE” (AMGEN INC., priority 2021, published 2025)
